Among the data in US20230045421A1 (priority 2018, published 2023) are EC50 values, retold here.

This assay relates to HBV rcDNA. Description: HepDE19 assay with bDNA quantitation of HBV rcDNA. It counts as cell-based, hepatitis B virus. Particulars: for pEC50: read-out: DE-19bDNA EC50. The method in brief: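 HepDE19 cells (HepG2-derived, Tet-regulated HBV replication) were deprived of tetracycline and then exposed to compounds for 7 days at 37 °C in 0.5% DMSO, 8-point titration from 25 μM. rcDNA was quantified by bDNA and EC50/EC90 came from 4-parameter fits. CC50 was measured by CellTiter-Glo ATP content on replicate plates after 4 days.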

Setting [1] is: Hepatitis B virus, HepDE19, HepDE19 assay, inhibition of formation of rcDNA.
Setting [2] is: HepDE19 assay, inhibition of formation of rcDNA.
Where [3] appears, read: HepDE19 assay, inhibition of formation of relaxed circular DNA (rcDNA), bDNA quantitation.

pEC50: −log10 of the molar value. Like-named read-outs stand apart in the source and are kept apart here.

With `COc1cccc2c(=O)[nH]cc(C(C)N(C)C(=O)Nc3ccc(F)c(Cl)c3)c12` (single isomer, unassigned) [Compound 265, 3-(3-chloro-4-fluorophenyl)-1-(1-(5-methoxy-1-oxo-1,2-dihydroisoquinolin-4-yl)ethyl)-1-methylurea], under setting [1], the negative-log EC50 (pEC50) (usually −log10 of the EC50, conventionally taken in molar units) was 5.82.
In the case of `CC(C)CN(C(=O)Nc1ccc(F)c(Cl)c1)C(C)c1c[nH]c(=O)c2cc(F)c(F)cc12` (single isomer, unassigned) [Compound 280, 3-(3-Chloro-4-fluorophenyl)-1-(1-(6,7-difluoro-1-oxo-1,2-dihydroisoquinolin-4-yl)ethyl)-1-isobutylurea], under setting [1], the pEC50 is 6.68.
As for `CC(c1cn(Cc2c[nH]nn2)c(=O)c2ccccc12)N(C)C(=O)Nc1ccc(F)c(Cl)c1` (single isomer, unassigned) [Compound 277, 1-(1-(2-((1H-1,2,3-Triazol-4-yl)methyl)-1-oxo-1,2-dihydroisoquinolin-4-yl)ethyl)-3-(3-chloro-4-fluorophenyl)-1-methylurea], the pEC50 under setting [2] is 6.10.
As to `CCN(C(=O)Nc1ccc(F)c(Cl)c1)C(C)c1c[nH]c(=O)c2c(F)c(F)ccc12` (single isomer, unassigned) [Compound 469, 3-(3-Chloro-4-fluorophenyl)-1-(1-(7,8-difluoro-1-oxo-1,2-dihydroisoquinolin-4-yl)ethyl)-1-ethylurea], the pEC50 under setting [3] was 8.30.
For `CC(c1c[nH]c(=O)c2c(F)cc(F)cc12)N(C)C(=O)Nc1ccc(F)c(Cl)c1` (single isomer, unassigned) [Compound 369, 3-(3-Chloro-4-fluorophenyl)-1-(1-(6,8-difluoro-1-oxo-1,2-dihydroisoquinolin-4-yl)ethyl)-1-methylurea], the pEC50 under setting [3] is 7.72.
`CC(c1cnc(OCc2nc[nH]n2)c2ccccc12)N(C)C(=O)Nc1ccc(F)c(Cl)c1` (single isomer, unassigned) [Compound 146, 1-(1-(1-((1H-1,2,4-Triazol-3-yl)methoxy)isoquinolin-4-yl)ethyl)-3-(3-chloro-4-fluorophenyl)-1-methylurea]: the pEC50 under setting [2] is 7.30.
Turning to `CCN(C(=O)Nc1ccc(F)c(Cl)c1)C(c1ccccc1)c1c[nH]c(=O)c2ccccc12` (single isomer, unassigned) [Compound 69, 3-(3-Chloro-4-fluorophenyl)-1-ethyl-1-((1-oxo-1,2-dihydroisoquinolin-4-yl)(phenyl)methyl)urea], where the note is “Hepatitis B virus, HepDE19, read-out: DE-19bDNA EC50 (μM), HepDE19 assay, inhibition of formation of rcDNA”, the EC50 (as a rule, the concentration that produces a half-maximal response) is 9.7 µM.
As for `CC(c1cn(C2CC2)c(=O)c2ccccc12)N(C)C(=O)Nc1ccc(F)c(Cl)c1` (single isomer, unassigned) [Compound 189, 3-(3-Chloro-4-fluorophenyl)-1-(1-(2-cyclopropyl-1-oxo-1,2-dihydroisoquinolin-4-yl)ethyl)-1-methylurea], the pEC50 under setting [2] is 5.62.
With `CC(c1c[nH]c(=O)c2ccccc12)N(CCS(C)(=O)=O)C(=O)Nc1ccc(F)c(Cl)c1` (single isomer, unassigned) [Compound 107, 3-(3-Chloro-4-fluorophenyl)-1-(2-(methylsulfonyl)ethyl)-1-(1-(1-oxo-1,2-dihydroisoquinolin-4-yl)ethyl)urea], the pEC50 under setting [2] is 4.77.
In the case of `CC(c1c[nH]c(=O)c2ccccc12)N(C)C(=O)NC1CCCC1` (single isomer, unassigned) [Compound 299, 3-Cyclopentyl-1-methyl-1-(1-(1-oxo-1,2-dihydroisoquinolin-4-yl)ethyl)urea], for the setting “Hepatitis B virus, HepDE19, HepDE19 assay, inhibition of formation of relaxed circular DNA (rcDNA), bDNA quantitation”, the negative logarithm of the EC50 (pEC50) is 5.07.
Take `CC(C)CN(C(=O)Nc1ccc(F)c(Cl)c1)C(C)c1cnc(-n2cncn2)c2ccccc12` (single isomer, unassigned) [Compound 344, 1-(1-(1-(1H-1,2,4-triazol-1-yl)isoquinolin-4-yl)ethyl)-3-(3-chloro-4-fluorophenyl)-1-isobutylurea]: the pEC50 under setting [3] was 5.64.
As for `CCCn1cc(C(C)N(C)C(=O)Nc2ccc(F)c(Cl)c2)c2ccccc2c1=O` (single isomer, unassigned) [Compound 186, 3-(3-Chloro-4-fluorophenyl)-1-methyl-1-(1-(1-oxo-2-propyl-1,2-dihydroisoquinolin-4-yl)ethyl)urea], the pEC50 under setting [2] was 5.08.
In the case of `CCN(C(=O)Nc1ccc(F)c(F)c1)C(C)c1c[nH]c(=O)c2c(F)c(F)ccc12` (single isomer, unassigned) [Compound 462, 1-(1-(7,8-Difluoro-1-oxo-1,2-dihydroisoquinolin-4-yl)ethyl)-3-(3,4-difluorophenyl)-1-ethylurea], the negative-log EC50 (pEC50) under setting [3] is 6.04.
As for `CC(c1c[nH]c(=O)c2cc(F)c(F)cc12)N(C)C(=O)Nc1cc(Cl)c(F)c(Cl)c1` (single isomer, unassigned) [Compound 438, 3-(3,5-Dichloro-4-fluorophenyl)-1-(1-(6,7-difluoro-1-oxo-1,2-dihydroisoquinolin-4-yl)ethyl)-1-methylurea], the pEC50 under setting [3] was 5.19.
Regarding `CC(NC(=O)Nc1ccc(F)c(Cl)c1)c1c[nH]c(=O)c2ccccc12` (single isomer, unassigned) [Compound 10, 1-(3-Chloro-4-fluorophenyl)-3-(1-(1-oxo-1,2-dihydroisoquinolin-4-yl)ethyl)urea], the negative logarithm of the EC50 (pEC50) under setting [1] was 5.47.
`COc1ncc(C(C)N(C(=O)Nc2ccc(F)c(Cl)c2)C2CC2)c2ccccc12` (single isomer, unassigned) [Compound 57, 3-(3-Chloro-4-fluorophenyl)-1-cyclopropyl-1-(1-(1-methoxyisoquinolin-4-yl)ethyl)urea]: under setting [2], the pEC50 was 6.62.
Take `CC(c1c[nH]c(=O)c2ccccc12)N(Cc1ccncc1)C(=O)Nc1ccc(F)c(Cl)c1` (single isomer, unassigned) [Compound 309, 3-(3-Chloro-4-fluorophenyl)-1-(1-(1-oxo-1,2-dihydroisoquinolin-4-yl)ethyl)-1-(pyridin-4-ylmethyl) urea]: the negative logarithm of the EC50 (pEC50) under setting [3] was 4.96.
On the same count and under the same terms, as for `CC(C)CN(C(=O)Nc1ccc(F)c(Cl)c1)C(C)c1c[nH]c(=O)c2c(F)cc(F)cc12` (single isomer, unassigned) [Compound 446, 3-(3-Chloro-4-fluorophenyl)-1-(1-(6,8-difluoro-1-oxo-1,2-dihydroisoquinolin-4-yl)ethyl)-1-isobutylurea], the figure is 6.23.
As for `CC(c1c[nH]c(=O)c2cc(F)c(F)cc12)N(CCS(N)(=O)=O)C(=O)Nc1ccc(F)c(Cl)c1` (single isomer, unassigned) [Compound 385, 2-(3-(3-Chloro-4-fluorophenyl)-1-(1-(6,7-difluoro-1-oxo-1,2-dihydroisoquinolin-4-yl)ethyl)ureido) ethane-1-sulfonamide], the pEC50 under setting [3] was 5.59.
On to `COc1ncc([C@@H](C)N(CC(F)(F)F)C(=O)Nc2ccc(F)c(Cl)c2)c2ccccc12` [Compound 101, (R)-3-(3-Chloro-4-fluorophenyl)-1-(1-(1-methoxyisoquinolin-4-yl)ethyl)-1-(2,2,2-trifluoroethyl)urea], for which the negative-log EC50 (pEC50) under setting [1] is 6.38.
In the case of `CC(C)CN(C(=O)Nc1ccc(F)cc1)C(C)c1c[nH]c(=O)c2c(F)cc(F)cc12` (single isomer, unassigned) [Compound 375, 1-(1-(6,8-Difluoro-1-oxo-1,2-dihydroisoquinolin-4-yl)ethyl)-3-(4-fluorophenyl)-1-isobutylurea], under setting [3], the negative logarithm of the EC50 (pEC50) is 5.77.
Consider `CNc1ncc(C(C)N(C)C(=O)Nc2ccc(F)c(Cl)c2)c2ccccc12` (single isomer, unassigned) [Compound 231, 3-(3-Chloro-4-fluorophenyl)-1-methyl-1-(1-(1-(methylamino)isoquinolin-4-yl)ethyl)urea], for which, under setting [2], the pEC50 is 4.92.
